Measured values: patent US20230158042A1, “COMBINATION CANCER THERAPY WITH PENTAAZA MACROCYCLIC RING COMPLEX AND HORMONE THERAPY AGENT” (Galera Labs, LLC, priority 2020, published 2023)

Legend:
MCF7-HTR cells [1] = assay: Clonogenic cell survival, hydroxy-Tam-resistant MCF7 cells with GC4419; type: cell-based, human; conditions: 5 µM GC4419 for 5 days; 1 µM hydroxy-Tam
Protocol: (§1) Clonogenic cell survival assay. For the clonogenic survival analysis, exponentially growing cells were replated using appropriate dilutions, and clonogenic survival was evaluated after 14 days in regular growth medium. Cells were stained with crystal violet, and colonies of >50 cells were counted and utilized to calculate clonogenic survival^46.
(§2) To test parameters indicative of oxidative stress, a clonogenic assay with hydroxy-Tam and MnPAM dismutase mimetic treatments was performed. Cells were plated at a density of 50,000 cells per 60-mm dish and treated with 1 µM hydroxy-Tam (Sigma) and 5 µM GC4419 (Galera Therapeutics) for a total of 120 h. This protocol was repeated with a fresh medium change every 24 h for 5 days. On day 6, the cells were trypsinized, counted, and replated in control medium using appropriate dilutions, and clonogenic survival was evaluated.

mice lacking Sirt3 = conditions: IP injection with 2 mg/kg 30 minutes before IR; cited from earlier work
rat model = conditions: cited from earlier work
MCF7-HTR cells [2] = assay: Ki-67 staining in MCF7-HTR cells; type: cell-based, human; conditions: 5 µM GC4419 for 5 days
From the text: With respect to FIG. 16a, the data from FIG. 7i, where MCF7-HTR cells were stained for Ki-67, as well as DAPI, were counted with ImageJ and quantified for average Ki-67 intensity as shown in the bar graph. With respect to FIGS. 16b and 16c, T47D and T47D-HTR cells were stained for Ki-67 as well as DAPI, and particles in the nucleus were counted with ImageJ and quantified for average Ki-67 intensity as shown in the bar graph. In FIGS. 16d and 16e, MCF7-HTR cells, and in FIGS. 16f and 16g, T47D-HTR cells, were treated with 5 µM GC4419 and/or 1 µM 4-hydroxy-Tam for 5 days, and then stained for Ki-67 as well as DAPI. Quantifications of average Ki-67 intensity are shown in the bar graphs. All experiments were done in triplicate. Error bars represent ± 1 SEM. ***p < 0.001. Representative images are shown.
Cells seeded on glass coverslips were fixed in 4% paraformaldehyde and then blocked with 1% BSA and 10% normal goat serum in 1x PBS. Cells were incubated with anti-Ki-67 (c-bioscience) antibody in 1x PBS followed by incubation with goat anti-rabbit IgG conjugated with Alexa Fluor 647 (Invitrogen) in 1x PBS with 5% goat serum. Cells were washed in 1x PBS, mounted, and imaged with a fluorescence microscope. Fluorescence images were captured using a laser scanning confocal microscope (Nikon A1 R). The paired images in all the figures were collected at the same gain and offset settings. […]

LNCaP-ENZR cells = assay: Clonogenic cell survival in LNCaP-ENZR cells; type: cell-based; conditions: GC4419 20 µM for 5 days, in the presence of ENZ
Protocol: FIGS. 21a-21b are a chart and graph showing that pharmacologically mimicking the activity of deacetylated lysine 68 MnSOD with a manganese pentaazamacrocyclic dismutase mimetic both inhibited the growth of LNCaP-ENZR tumors and reversed the enzalutamide resistance in LNCaP-ENZR / LNCaP—MnSOD^K68Q cells and tumors. In FIG. 21a, clonogenic cell survival experiments were performed in LNCaP-ENZR (left two bars) and LNCaP—MnSOD^K68Q (right two bars) treated with ENZ, with or without GC4419 (20 µM) for 5 days. […] Tumor volumes were measured three times a week for 46 days. For each group n=10. Error bars ± 1 SEM. All experiments done in triplicate. **p < 0.01.

[3] = test system: head-and-neck cancer patients; conditions: patients undergoing chemoradiation therapy, Phase 1 trial; cited from earlier work
MCF7-MnSOD^K68Q cells = assay: Clonogenic cell survival in MCF7-MnSOD^K68Q cells; type: cell-based, human; conditions: GC4419 10 µM alone
Protocol: FIGS. 25a-25b show clonogenic cell survival studies in MCF7-MnSOD^K68Q cells exposed to either: Fulv at 100 nM (in FIG. 25a); or Palb at 0.5 µM (in FIG. 25b) using standard methods. […] Error bars are ± 1 SEM. Experiments in triplicate. *** p < 0.001.
as §1

T47D-HTR cells = assay: Clonogenic cell survival, hydroxy-Tam-resistant T47D cells with GC4419; type: cell-based, human; conditions: 5 µM GC4419 for 5 days; 1 µM hydroxy-Tam
Protocol: as §1, §2

[4] = test system: Sirt3^-/--MT-SIRT3^WT allografts; assay: Sirt3-/--MT-SIRT3^WT mammary allograft tumor growth (bioluminescence); type: in vivo; conditions: GC4419 by IP every other day for five weeks; compared to control mice
Protocol: FIGS. 29a-29b are plots showing that the growth of murine mammary allograft tumors is inhibited by exposure to the MnSOD mimic GC4419 much more in cells without expression of deacetylation competent SIRT3. […] Mice were subsequently injected with luciferin potassium (120 mg/kg) every week and signal intensity will be quantified. Error bars represent one SD from the mean.
These cell lines were subsequently infected with and selected to express either a SIRT3 wild-type (Sirt3^-/--MT-SIRT3^WT) or deacetylation activity null (Sirt3^-/--MT-SIRT3^DN) gene and a lenti-luciferase to assess tumor growth by bioluminescence. Allograft tumor mice were split into four groups: (1) control, untreated Sirt3^-/--MT-SIRT3^DN; (2) GC4419 treated Sirt3^-/--MT-SIRT3^DN; (3) control, untreated Sirt3^-/--MT-SIRT3^WT; and (4) GC4419 treated Sirt3^-/--MT-SIRT3^WT. […] Accordingly, it was shown that the growth of murine mammary allograft tumors is inhibited by pharmacologically mimicking the activity of deacetylated lysine 68 MnSOD with a manganese pentaazamacrocyclic dismutase mimetic much more in tumors without deacetylation competent SIRT3. Further, this supports that selection of tumors displaying an AcK68 signature could increase response to treatment with a MnPAM dismutase mimetic (or other methods) alone or in combination with other therapies.

MCF7-Cispl-R cells = assay: Cisplatin resistance phenotype of MCF7-Cispl-R cells (clonogenic cell survival); type: cell-based, human; conditions: treated with GC4419
Protocol: FIGS. 27a-27c are an image and graphs showing that MnSOD—AcK68/ROS/HIF2α dysregulation directs PanR (multi-therapy resistance to cancer therapeutics). […] In FIG. 27b, ROS was measured in MCF7-Cispl-R cells, compared with MCF7 cells, using an Amplex Red assay. In FIG. 27c, MCF7 and MCF7-MnSOD^K68Q cells were measured by clonogenic cell survival assays, without and with cisplatin exposure, and infected with scrambled (C) or HIF2α shRNA. All experiments were done in triplicate. Error bars are ± 1 SEM. * p < 0.05.
To evaluate clonogenic cell survival by testing cell growth at low density, 500 exponentially growing cells were plated in triplicate in 6-well plates using serial dilution, and the growth of the cells was examined throughout 14 days in regular growth medium. Cells were fixed with 70% ethanol for 5 minutes and then stained with 0.5% crystal violet (in 25% methanol) for 20 minutes. Photos of stained plates were taken, and colonies of more than 50 cells were counted and used to calculate clonogenic survival.

## [Cl][Mn][Cl].c1cc2nc(c1)CN[C@H]1CCCC[C@@H]1NCCN[C@H]1CCCC[C@@H]1NC2 [GC4419]
MCF7-HTR cells [1]
  hydroxy-Tam resistance (clonogenic cell survival): became sensitive to hydroxy-Tam
Mice lacking Sirt3
  liver damage: attenuated liver damage
Rat model
  VEGFr inhibitor-induced pulmonary disease: attenuate VEGFr inhibitor-induced pulmonary disease
MCF7-HTR cells [2]
  Ki-67 IHC staining: decreased Ki-67 IHC staining
LNCaP-ENZR cells
  tumor cell survival (clonogenic): significant decrease in tumor cell survival in the presence of ENZ
[3]
  oral mucositis: reduce oral mucositis
MCF7-MnSOD^K68Q cells
  cell growth (clonogenic): inhibited the growth of MnSOD^K68Q breast cancer cells
T47D-HTR cells
  hydroxy-Tam resistance (clonogenic cell survival): became sensitive to hydroxy-Tam
[4]
  tumor growth: little change in tumor growth
MCF7-Cispl-R cells
  Cispl-R phenotype: converted the Cispl-R cells to a sensitive phenotype
